This passage reports viability, T/C and IC50 results from PubChem BioAssay AID1963852 (Molecular Pharmacology Branch, DTP, NCI, 2024).

This assay relates to 282377-053-R-J1-PDC complex spheroid viability. In words: Anticancer human tumor 282377-053-R-J1-PDC patient-derived colon adenocarcinoma cell line growth inhibition [POLQ]. Conditions: for viability, T/C: stronger effect = lower value. The protocol:
Multicellular complex tumor spheroid response to Polymerase (POL) inhibitors (novobiocin, ART-558, RP6685) in combination with a variety of drugs and investigational agents in selected tumor cell lines
The POL inhibitors (novobiocin, ART-558, and RP6685) were evaluated both individually and in combination with standard of care and investigational anticancer small molecules within a complex spheroid model of solid tumors. . Complex spheroids include a stromal component modeled by human endothelial cells (HUVEC) and fibroblasts modeled by human mesenchymal stem cells (MSCs). The concentration ranges selected for each drug and investigational agent were based upon clinically achievable concentrations if the clinical Cmax of the agent was known.
Compounds. The drugs and investigational agents: novobiocin (NSC847541), ART-558 (NSC835418), RP-6685 (NSC848927), peposertib (NSC802822), ceralasertib (NSC780249), elimusertib (NSC800525), camonsertib (NSC841442), AZD-1390 (NSC803789), olaparib (NSC753686), talazoparib (NSC767125), rucaparib (NSC756644), sotorasib (NSC818433), MRTX-1133 (NSC836407), SN-38 (NSC673596), topotecan (NSC609699), epotoside (NSC141540), doxorubicin (NSC123127), gemcitabine (NSC613327), 5-fluorouracil (NSC19893), paclitaxel (NSC125973), vemurafenib (NSC761431), MSA-2 (NSC828583), SN-011 (NSC837082), adavosertib (NSC754352), prexasertib (NSC758257), carboplatin (NSC241240) and oxaliplatin (NSC266046), were obtained from the National Cancer Institute (NCI) Developmental Therapeutics Program Chemical Repository (21). The FDA-approved anticancer drug set is available from the Developmental Therapeutics Program at https://dtp.cancer.gov/organization/dscb/obtaining/. […] The stock solutions were prepared in dimethyl sulfoxide (DMSO, Sigma-Aldrich, St. Louis, MO, cat. D2650), except for the platinum compounds which were prepared in saline (Quality Biological, Gaithersburg, MD, cat. 114-055-101), at 800-fold the tested concentration and stored at -70 degrees C prior to their use. All drugs and investigational agents were tested over a range starting from a high concentration at or near the clinical Cmax and decreasing in half-log increments. If the clinical Cmax for an agent had not been determined, the highest concentration tested was 10 microM, except for SN-38, which was tested at a high concentration of 1 microM.
Cell Culture. All cells were maintained in an incubator at 37 degrees C and 5% CO2 with 95% humidity. The PDC lines were cultured according to standard operating procedures established by the NCI PDMR (https://pdmr.cancer.gov). Table 3 of the manuscript, lists the cell lines along with the number of the three cell types plated to form the mct-spheroids and media for tumor cell growth. After thawing, all PDC lines, except 997537-175-T-J1-PDC and 415267-285-R-J2-PDC, were cultured in Matrigel-coated flasks prepared with a working solution of 1X Ham's F-12 nutrient mix, without supplementation (Thermo Fisher Scientific, cat. 11765054), 100 U/mL penicillin-streptomycin (Thermo Fisher Scientific, cat. 15140122), and 2.5% Matrigel (Corning Inc., Corning, NY, cat. 354248) for the first three passages. The two PDC lines 997537-175-T-J1-PDC and 415267-285-R-J2-PDC were cultured on uncoated flasks. The 857933-349-R-J2-PDC line was cultured in 6C/Colon 1B media containing advanced DMEM/F-12 (Thermo Fisher Scientific, cat. 12634028), 10 mM HEPES (Thermo Fisher Scientific, cat. 15630080), 1X GlutaMAX supplement (Thermo Fisher Scientific, cat. 35050061), 0.1 mg/mL primocin (InvivoGen, San Diego, CA, cat. ant-pm-2), 10% defined fetal bovine serum, heat inactivated (HyClone Laboratories Inc., Logan, UT, cat. SH30070.03HI), 50% L-WRN conditioned media (ATCC, cat. CRL-3276), 1.25 mM N-Acetyl-L-cysteine (Sigma-Aldrich, cat. A9165), 10 mM nicotinamide (Sigma-Aldrich, cat. N0636), 1X B-27 supplement (Thermo Fisher Scientific, cat. 17504044), 1X N-2 supplement (Thermo Fisher Scientific, cat. […]

Where “and” joins values, the source holds several entries; their conditions need not be identical. Identical values can stand only once.
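Further: spheroids exposed to compounds for seven days.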

By viability, T/C is commonly meant the ratio of treated to control. Usually IC50 stands for the midpoint of a concentration-inhibition curve. As for `C#Cc1c(F)ccc2cc(O)cc(-c3ncc4c(N5CC6CCC(C5)N6)nc(OCC56CCCN5CC(F)C6)nc4c3F)c12` (configuration not stated), the viability, T/C is 64.6% and 97.7% and 80.6% (compound 0.0316 µM); 88.7% and 85.6% and 110% (compound 0.1 µM); 112% and 102% and 114% (compound 0.316 µM); 99.1% and 101% and 114% (compound 1 µM); 84% and 93.9% and 105% (compound 3.16 µM); 74.8% and 83.1% and 86.3% (compound 10 µM). Moreover, the IC50 (curve of compound) is over 10000 nM.
In the case of `CC1COCCN1c1cc(C2(O)CC3CCC(C2)O3)c2cnn(-c3ccn[nH]3)c2n1` (configuration not stated), the viability, T/C by setting is: (compound 0.0316 µM) 79.8% and 96.8% and 76.4%; (compound 0.1 µM) 77% and 69.1% and 83.1%; (compound 0.316 µM) 57.1% and 59.1% and 53.6%; (compound 1 µM) 29.4% and 34.3% and 49.3%; (compound 3.16 µM) 27.7% and 24.9% and 49.9%; (compound 10 µM) 16.7% and 22% and 41.5%. For the same compound, the IC50 (curve of compound) was 431 nM and 391 nM and 592 nM.
Turning to `CCc1cc2c(N3CCc4c(cc(Cn5ccnc5)cc4-c4cn(C)nc4C(F)(F)F)C3=O)cc(C)nc2c(OC)n1`, the viability, T/C was 103% and 99% and 81.1% (compound 0.0316 µM); 120% and 97.4% and 84.6% (compound 0.1 µM); 124% and 98% and 87.1% (compound 0.316 µM); 144% and 89.3% and 98.1% (compound 1 µM); 112% and 113% and 109% (compound 3.16 µM); 72.1% and 119% and 109% (compound 10 µM). For the setting “curve of compound”, the IC50 was over 10000 nM.
`CCc1cc2c(N3CCc4c(cc(Cn5ccnc5)cc4-c4cn(C)nc4C(F)(F)F)C3=O)ccnc2c(OC)n1`: the viability, T/C runs as follows: (compound 0.0316 µM) 128% and 102% and 81.9%; (compound 0.1 µM) 138% and 96.1% and 88.3%; (compound 0.316 µM) 140% and 95% and 77.2%; (compound 1 µM) 129% and 82.6% and 88.5%; (compound 3.16 µM) 121% and 93.2% and 89.4%; (compound 10 µM) 88% and 110% and 120%. In addition, where the note is “curve of compound”, the IC50 is over 10000 nM.
With `COc1cc2cc(C(=O)CCC(=O)O)sc2cc1OC`, the viability, T/C is, setting by setting: (compound 0.0316 µM) 94.6% and 86.1% and 105%; (compound 0.1 µM) 98.1% and 93.6% and 93.2%; (compound 0.316 µM) 108% and 97% and 105%; (compound 1 µM) 111% and 96.9% and 98.6%; (compound 3.16 µM) 103% and 107% and 127%; (compound 10 µM) 93.6% and 102% and 101%. The half-inhibitory concentration (IC50) (curve of compound) is over 10000 nM.
For the compound `Cc1cccc(N(C)C(=O)C2C(O)CCN2c2nc(C)cc(C(F)(F)F)c2C#N)c1` (configuration not stated), the viability, T/C (compound 0.1 µM) is 105% [middle of 13 runs]. Further, the IC50 reads like this: (compound alone, run of 10/31/2023) over 10000 nM; (compound alone, run of 11/06/2023) over 10000 nM.
As to `O=C(Nc1ccc(O)c(NS(=O)(=O)c2ccc(F)cc2)c1)c1ccc(-c2ccccc2)cc1`, the viability, T/C (compound 0.0316 µM) was 110% and 91.2% and 91.8%; the viability, T/C (compound 0.1 µM) is 98.8% and 86.6% and 102%; the viability, T/C (compound 0.316 µM) was 108% and 92.9% and 112%; the viability, T/C (compound 1 µM) was 113% and 95.5% and 102%; the viability, T/C (compound 3.16 µM) is 116% and 112% and 121%; the viability, T/C (compound 10 µM) was 116% (2×) and 109%. Further, the IC50 (curve of compound) is over 10000 nM.
As for `CC(=O)O[C@H]1C(=O)[C@@]2(C)[C@H]([C@H](OC(=O)c3ccccc3)[C@]3(O)C[C@H](OC(=O)[C@H](O)[C@@H](NC(=O)c4ccccc4)c4ccccc4)C(C)=C1C3(C)C)[C@]1(OC(C)=O)CO[C@@H]1C[C@@H]2O` + COC1C(OC(N)=O)C(O)C(Oc2ccc3c(O)c(NC(=O)c4ccc(O)c(CC=C(C)C)c4)c(=O)oc3c2C)OC1(C)C, the IC50 (curve of first compound, second compound 0.0316 µM) was under 9.49 nM; the half-inhibitory concentration (IC50) (curve of first compound, second compound 0.1 µM) stood at 10.4 nM; the IC50 (curve of first compound, second compound 0.316 µM) came out at 11.5 nM; the IC50 (curve of first compound, second compound 1 µM) was found to be 11.4 nM; the IC50 (curve of first compound, second compound 3.16 µM) was 12.6 nM; the IC50 (curve of first compound, second compound 10 µM) worked out at 13.1 nM. In addition, the viability, T/C is 39.3% (second compound 0.0316 µM, first compound 0.00949 µM); 18.9% (second compound 0.0316 µM, first compound 0.03 µM); 19.9% (second compound 0.0316 µM, first compound 0.0949 µM); 20.6% (second compound 0.0316 µM, first compound 0.3 µM); 19.5% (second compound 0.0316 µM, first compound 0.949 µM); 24.1% (second compound 0.0316 µM, first compound 3 µM). Moreover, the viability, T/C by setting is: (second compound 0.1 µM, first compound 0.00949 µM) 52.5%; (second compound 0.1 µM, first compound 0.03 µM) 21.9%; (second compound 0.1 µM, first compound 0.0949 µM) 20.9%; (second compound 0.1 µM, first compound 0.3 µM) 18.1%; (second compound 0.1 µM, first compound 0.949 µM) 22.1%; (second compound 0.1 µM, first compound 3 µM) 25.3%. In addition, the viability, T/C was 55.7% (second compound 0.316 µM, first compound 0.00949 µM); 20.8% (second compound 0.316 µM, first compound 0.03 µM); 19.9% (second compound 0.316 µM, first compound 0.0949 µM); 20.7% (second compound 0.316 µM, first compound 0.3 µM); 22.9% (second compound 0.316 µM, first compound 0.949 µM); 20.6% (second compound 0.316 µM, first compound 3 µM). Further, the viability, T/C was 55.6% (second compound 1 µM, first compound 0.00949 µM); 20.8% (second compound 1 µM, first compound 0.03 µM); 16.8% (second compound 1 µM, first compound 0.0949 µM); 17.1% (second compound 1 µM, first compound 0.3 µM); 22.2% (second compound 1 µM, first compound 0.949 µM); 27.9% (second compound 1 µM, first compound 3 µM). Further, the viability, T/C is, setting by setting: (second compound 3.16 µM, first compound 0.00949 µM) 58.5%; (second compound 3.16 µM, first compound 0.03 µM) 23.8%; (second compound 3.16 µM, first compound 0.0949 µM) 15.8%; (second compound 3.16 µM, first compound 0.3 µM) 18.2%; (second compound 3.16 µM, first compound 0.949 µM) 23.1%; (second compound 3.16 µM, first compound 3 µM) 29.4%. The viability, T/C was 61.4% (second compound 10 µM, first compound 0.00949 µM); 20.9% (second compound 10 µM, first compound 0.03 µM); 16.9% (second compound 10 µM, first compound 0.0949 µM); 20.7% (second compound 10 µM, first compound 0.3 µM); 24.5% (second compound 10 µM, first compound 0.949 µM); 20.2% (second compound 10 µM, first compound 3 µM).
